Experimental data from US20150094474A1, “AGRICULTURAL CHEMICALS” (Redx Pharma Ltd., priority 2012, published 2015).

Key:
Format in all cases: in vivo
[1] = test system: German cockroaches, Blattella germanica; assay: Insect repellent bioassay, German cockroaches (treated tile arena); settings: 20% concentration
Procedure: (§1) A laboratory bioassay was conducted to screen 5 compounds (Icaridin (38); and 4 icaridin analogues: 39, 40a, 42a and 41) for repellent activity against houseflies, Musca domestica, black ants, Lasius niger, German cockroaches, Blattella germanica, and bedbugs, Cimex lectularius. Compounds were diluted in a mixture of ethanol and water and assessed at a 20% concentration. A mixture of ethanol/water only negative control was also included for comparative purposes. These were applied onto an aluminium foil tile, which was placed into one half of an arena. The other half of the arena contained an untreated aluminium foil tile. The number of insects present in the treated and untreated area was assessed every 5 minutes for a total of 20 minutes.
(§2) Houseflies, Musca domestica, and German cockroaches, Blattella germanica, were obtained from a laboratory culture maintained at i2LResearch. Mixed sex and age adult insects (flies were aged 3-6 days old) were used in the experiments.
(§3) Temperature was maintained between 24.2 and 24.6° C. and relative humidity ranged between 27.5% and 43.5%, throughout the experimental period.
(§4) The tested compounds were diluted in ethanol and water to a concentration of 20% (w/w: compound 20%, ethanol 40%, water 40%). The concentrates were prepared at room temperature and stirred for approximately 15 minutes using a vortex mixer. A negative control (mixture of ethanol:water 50:50) was also included in the testing for comparative purposes. Treatments were applied directly on to a non porous surface (aluminium foil), using a Gilson pipette at a rate of 0.225 ml per 225 cm^2 surface tile. A small piece of acetate was used to evenly spread the treatments across the entire surface of the tile.
(§5) For the testing against ants, cockroaches and bedbugs: A clear plastic container was used measuring approximately 34 cm long×21 cm wide×20 cm high. This was divided into two halves. The treated aluminium foil was placed in one half and the other half contained untreated foil. Food (sugar cube for black ants and bran pellet for cockroaches) and water (damp cotton wool) were placed in each half where appropriate. Twenty ants/cockroaches and ten bedbugs were placed in the centre of the arena. The number of insects in each half was assessed at 5 minute intervals for a total of 20 minutes.
(§6) Three to six replicates were performed for each treatment, for each species.

[2] = test system: bedbugs, Cimex lectularius; assay: Insect repellent bioassay, bedbugs (treated tile arena); settings: 20% concentration
Procedure: as §1
Bedbugs, Cimex lectularius, were obtained from a laboratory culture maintained at CimexStore (Chepstow, UK). Mixed age and sex adult bedbugs were used in the experiments (see deviation below).
as §3, §4, §5, §6

black ants, Lasius niger = assay: Insect repellent bioassay, black ants (treated tile arena); settings: 20% concentration
Procedure: as §1
Black ants, Lasius niger, were field collected from the Cardiff area. Mixed age worker ants were used in the experiments.
as §3, §4, §5, §6

[3] = test system: houseflies, Musca domestica; assay: Insect repellent bioassay, houseflies (treated tile arena); settings: 20% concentration
Procedure: as §1, §2, §3, §4
For the testing against houseflies: A clear plastic container was used measuring approximately 34 cm long×21 cm wide×20 cm high, with a piece of netting and lid on top. This was divided into two halves using an additional tile with a small slit measuring approximately 2.5 cm×5 cm cut at a height of […] from the base, so that the insects could freely travel between halves. A treated and untreated tile was placed either side of the dividing panel. Twenty flies were placed in the half with the treated surface. Sugar and water was placed in both halves. The number of insects crossing from the treated area into the untreated area was assessed at 5 minute intervals for a total of 20 minutes.
as §6

barley = assay: Herbicidal bioassay, barley (% necrosis)
Method in brief: (§7)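 Scoring of % necrosis followed EPPO guideline PP1/135 at specified growth intervals, five replicates per species and treatment. Plants at the 2-4 true leaf stage received Potter-tower sprays of DMSO-diluted compounds across six levels from 0.0001% to 0.05%, with water and DMSO controls.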

peas = assay: Herbicidal bioassay, peas (% necrosis)
Method in brief: as §7

CCC(C)OC(=O)N1CCCCC1CC=O (stereo not drawn) [Compound 39, sec-Butyl 2-(2-oxoethyl)piperidine-1-carboxylate]
insects on the treated tile ([1]; TIME 5 mins): B (between 11% and 25% were on the treated tile)
insects on the treated tile ([1]; TIME 10 mins): B (between 11% and 25% were on the treated tile)
insects on the treated tile ([1]; TIME 15 mins): B (between 11% and 25% were on the treated tile)
insects on the treated tile ([1]; TIME 20 mins): B (between 11% and 25% were on the treated tile)
insects on the treated tile ([2]; TIME 5 mins): A (10% or less of the insects were on the treated tile)
insects on the treated tile ([2]; TIME 20 mins): A (10% or less of the insects were on the treated tile)
insects on the treated tile (black ants, Lasius niger; TIME 5 mins): B (between 11% and 25% were on the treated tile)
insects on the treated tile (black ants, Lasius niger; TIME 10 mins): B (between 11% and 25% were on the treated tile)
insects on the treated tile (black ants, Lasius niger; TIME 15 mins): B (between 11% and 25% were on the treated tile)
insects on the treated tile (black ants, Lasius niger; TIME 20 mins): B (between 11% and 25% were on the treated tile)
insects moving towards the treated tile ([3]; TIME 5 mins): B (between 11% and 25% were on the treated tile)
insects moving towards the treated tile ([3]; TIME 10 mins): C (greater than 25% were on the treated tile)
insects moving towards the treated tile ([3]; TIME 15 mins): C (greater than 25% were on the treated tile)
insects moving towards the treated tile ([3]; TIME 20 mins): C (greater than 25% were on the treated tile)

CCC(C)OC(=O)N1CCCCC1C/C=N/O (stereo not drawn) [Compound 40a]
insects on the treated tile ([1]; TIME 5 mins): C (greater than 25% were on the treated tile)
insects on the treated tile ([1]; TIME 10 mins): B (between 11% and 25% were on the treated tile)
insects on the treated tile ([1]; TIME 15 mins): B (between 11% and 25% were on the treated tile)
insects on the treated tile ([1]; TIME 20 mins): B (between 11% and 25% were on the treated tile)
insects on the treated tile ([2]; TIME 10 mins): A (10% or less of the insects were on the treated tile)
insects on the treated tile (black ants, Lasius niger; TIME 5 mins): C (greater than 25% were on the treated tile)
insects on the treated tile (black ants, Lasius niger; TIME 10 mins): C (greater than 25% were on the treated tile)
insects on the treated tile (black ants, Lasius niger; TIME 15 mins): C (greater than 25% were on the treated tile)
insects on the treated tile (black ants, Lasius niger; TIME 20 mins): C (greater than 25% were on the treated tile)
insects moving towards the treated tile ([3]; TIME 5 mins): B (between 11% and 25% were on the treated tile)
insects moving towards the treated tile ([3]; TIME 10 mins): B (between 11% and 25% were on the treated tile)
insects moving towards the treated tile ([3]; TIME 15 mins): B (between 11% and 25% were on the treated tile)
insects moving towards the treated tile ([3]; TIME 20 mins): B (between 11% and 25% were on the treated tile)

COC(=O)c1ccc(CNS(C)(=O)=O)cc1S(=O)(=O)NC(=O)Nc1nc(OC)cc(OC)n1 [Mesosulfuron (6), Mesosulfuron methyl ester, reference compound]
Sum of % necrosis in barley (barley; Dose 0.000001, Day 0): C (less than 50% necrosis)
Sum of % necrosis in barley (barley; Dose 0.000001, Day 1): C (less than 50% necrosis)
Sum of % necrosis in barley (barley; Dose 0.000001, Day 3): C (less than 50% necrosis)
Sum of % necrosis in barley (barley; Dose 0.000001, Day 7): C (less than 50% necrosis)
Sum of % necrosis in barley (barley; Dose 0.000001, Day 10): C (less than 50% necrosis)
Sum of % necrosis in barley (barley; Dose 0.000001, Day 14): C (less than 50% necrosis)
Sum of % necrosis in barley (barley; Dose 0.000005, Day 0): C (less than 50% necrosis)
Sum of % necrosis in barley (barley; Dose 0.000005, Day 1): C (less than 50% necrosis)
Sum of % necrosis in barley (barley; Dose 0.000005, Day 3): C (less than 50% necrosis)
Sum of % necrosis in barley (barley; Dose 0.000005, Day 7): C (less than 50% necrosis)
Sum of % necrosis in barley (barley; Dose 0.000005, Day 10): C (less than 50% necrosis)
Sum of % necrosis in barley (barley; Dose 0.000005, Day 14): C (less than 50% necrosis)
Sum of % necrosis in barley (barley; Dose 0.00001, Day 0): C (less than 50% necrosis)
Sum of % necrosis in barley (barley; Dose 0.00001, Day 1): C (less than 50% necrosis)
Sum of % necrosis in barley (barley; Dose 0.00001, Day 3): C (less than 50% necrosis)
Sum of % necrosis in barley (barley; Dose 0.00001, Day 7): C (less than 50% necrosis)
Sum of % necrosis in barley (barley; Dose 0.00001, Day 10): C (less than 50% necrosis)
Sum of % necrosis in barley (barley; Dose 0.00001, Day 14): C (less than 50% necrosis)
Sum of % necrosis in barley (barley; Dose 0.00005, Day 0): C (less than 50% necrosis)
Sum of % necrosis in barley (barley; Dose 0.00005, Day 1): C (less than 50% necrosis)
Sum of % necrosis in barley (barley; Dose 0.00005, Day 3): C (less than 50% necrosis)
Sum of % necrosis in barley (barley; Dose 0.00005, Day 7): C (less than 50% necrosis)
Sum of % necrosis in barley (barley; Dose 0.00005, Day 10): C (less than 50% necrosis)
Sum of % necrosis in barley (barley; Dose 0.00005, Day 14): C (less than 50% necrosis)
Sum of % necrosis in barley (barley; Dose 0.0001, Day 0): C (less than 50% necrosis)
Sum of % necrosis in barley (barley; Dose 0.0001, Day 1): C (less than 50% necrosis)
Sum of % necrosis in barley (barley; Dose 0.0001, Day 3): C (less than 50% necrosis)
Sum of % necrosis in barley (barley; Dose 0.0001, Day 7): C (less than 50% necrosis)
Sum of % necrosis in barley (barley; Dose 0.0001, Day 10): B (50%-80% necrosis)
Sum of % necrosis in barley (barley; Dose 0.0001, Day 14): B (50%-80% necrosis)
Sum of % necrosis in barley (barley; Dose 0.0005, Day 0): C (less than 50% necrosis)
Sum of % necrosis in barley (barley; Dose 0.0005, Day 1): C (less than 50% necrosis)
Sum of % necrosis in barley (barley; Dose 0.0005, Day 3): C (less than 50% necrosis)
Sum of % necrosis in barley (barley; Dose 0.0005, Day 7): C (less than 50% necrosis)
Sum of % necrosis in barley (barley; Dose 0.0005, Day 10): B (50%-80% necrosis)
Sum of % necrosis in barley (barley; Dose 0.0005, Day 14): B (50%-80% necrosis)
Sum of % necrosis in Pea (peas; Dose 0.000001, Day 0): C (less than 50% necrosis)
Sum of % necrosis in Pea (peas; Dose 0.000001, Day 1): C (less than 50% necrosis)
Sum of % necrosis in Pea (peas; Dose 0.000001, Day 3): A (over 80% necrosis)
Sum of % necrosis in Pea (peas; Dose 0.000001, Day 7): A (over 80% necrosis)
Sum of % necrosis in Pea (peas; Dose 0.000001, Day 10): A (over 80% necrosis)
Sum of % necrosis in Pea (peas; Dose 0.000001, Day 14): A (over 80% necrosis)
Sum of % necrosis in Pea (peas; Dose 0.000005, Day 0): C (less than 50% necrosis)
Sum of % necrosis in Pea (peas; Dose 0.000005, Day 1): C (less than 50% necrosis)
Sum of % necrosis in Pea (peas; Dose 0.000005, Day 3): B (50%-80% necrosis)
Sum of % necrosis in Pea (peas; Dose 0.000005, Day 7): A (over 80% necrosis)
Sum of % necrosis in Pea (peas; Dose 0.000005, Day 10): A (over 80% necrosis)
Sum of % necrosis in Pea (peas; Dose 0.000005, Day 14): A (over 80% necrosis)
Sum of % necrosis in Pea (peas; Dose 0.00001, Day 0): C (less than 50% necrosis)
Sum of % necrosis in Pea (peas; Dose 0.00001, Day 1): C (less than 50% necrosis)
Sum of % necrosis in Pea (peas; Dose 0.00001, Day 3): A (over 80% necrosis)
Sum of % necrosis in Pea (peas; Dose 0.00001, Day 7): A (over 80% necrosis)
Sum of % necrosis in Pea (peas; Dose 0.00001, Day 10): A (over 80% necrosis)
Sum of % necrosis in Pea (peas; Dose 0.00001, Day 14): A (over 80% necrosis)
Sum of % necrosis in Pea (peas; Dose 0.00005, Day 0): C (less than 50% necrosis)
Sum of % necrosis in Pea (peas; Dose 0.00005, Day 1): C (less than 50% necrosis)
Sum of % necrosis in Pea (peas; Dose 0.00005, Day 3): B (50%-80% necrosis)
Sum of % necrosis in Pea (peas; Dose 0.00005, Day 7): A (over 80% necrosis)
Sum of % necrosis in Pea (peas; Dose 0.00005, Day 10): A (over 80% necrosis)
Sum of % necrosis in Pea (peas; Dose 0.00005, Day 14): A (over 80% necrosis)
Sum of % necrosis in Pea (peas; Dose 0.0001, Day 0): C (less than 50% necrosis)
Sum of % necrosis in Pea (peas; Dose 0.0001, Day 1): C (less than 50% necrosis)
Sum of % necrosis in Pea (peas; Dose 0.0001, Day 3): A (over 80% necrosis)
Sum of % necrosis in Pea (peas; Dose 0.0001, Day 7): A (over 80% necrosis)
Sum of % necrosis in Pea (peas; Dose 0.0001, Day 10): A (over 80% necrosis)
Sum of % necrosis in Pea (peas; Dose 0.0001, Day 14): A (over 80% necrosis)
Sum of % necrosis in Pea (peas; Dose 0.0005, Day 0): C (less than 50% necrosis)
Sum of % necrosis in Pea (peas; Dose 0.0005, Day 1): C (less than 50% necrosis)
Sum of % necrosis in Pea (peas; Dose 0.0005, Day 3): C (less than 50% necrosis)
Sum of % necrosis in Pea (peas; Dose 0.0005, Day 7): A (over 80% necrosis)
Sum of % necrosis in Pea (peas; Dose 0.0005, Day 10): A (over 80% necrosis)
Sum of % necrosis in Pea (peas; Dose 0.0005, Day 14): A (over 80% necrosis)
